Values quoted from earlier work as cited in article PMC9299415 (Molecular Neurobiology, 2022).

Legend:
[1] = tested on: α7 nAChR
[2] = tested on: SARS-CoV-2; conditions: rhesus macaque model, ref [18]

Oc1ccc2[nH]ccc2c1 [5-HI, 5-hydroxyindole]
potentiation efficacy compared with PNU-120596 [1]: lower efficacy than PNU-120596 | recovery of receptors from desensitization [1]: does not produce significant recovery of receptors from desensitization

CCN1C[C@]2(COC(=O)c3ccccc3N3C(=O)C[C@H](C)C3=O)CC[C@H](OC)[C@@]34[C@@H]5C[C@H]6[C@H](OC)[C@@H]5[C@](O)(C[C@@H]6OC)[C@@](O)([C@@H](OC)[C@H]23)[C@@H]14 [MLA, methyllycaconitine]
agonist/antagonist type at α7 [1]: reversible competitive α7 antagonist

COc1cc(OC)c(NC(=O)Nc2cc(C)on2)cc1Cl [PNU-120596, N-(5-Chloro-2,4-dimethoxyphenyl)-N’-(5-methyl-3-isoxazolyl)-urea]
channel activation by PNU-120596 by itself [1]: cannot induce channel activation

c1cnc2cc3c(cc2n1)[C@@H]1CNC[C@H]3C1 [varenicline]
agonist/antagonist type at α7 [1]: full agonist | infectivity and disease progression [2]: reduces infectivity and disease progression
